# Experimental data taken from patent publication US6998383B2, “Inhibitors of receptor activator of NF-κB and uses thereof” (Research Development Corporation, priority 2001, dated 2006).
# Assays:
# [1] = test system: bone marrow-derived mouse monocytes; assay: RANKL and M-CSF-mediated osteoclast differentiation in bone marrow-derived mouse monocytes (TRAP staining); assay type: cell-based
# Procedure: After 6-7 days, the cells were fixed and stained for TRAP. The numbers of multi-nucleated, TRAP positive osteoclasts were counted.
# Mouse-derived monocytes were plated in 48-well plates and costimulated as in FIG. 3A with murine M-CSF (10 ng/ml) and RANKL (30 ng/ml) in the absence (left panel) or presence of the indicated peptides. After 6-7 days, the cells were fixed and stained for TRAP. A representative field from each well was taken at a magnification of 10×.
# Primary bone marrow monocytes (BM) or RAW264.7 cells were cultured in 48-well dishes at a density of 1×10^5 cells/well or 2×10^3 cells/well, and then treated with the indicated factors at the beginning of the culture and during a medium change on day 3. Osteoclast formation was assessed by counting the total number of multi-nucleated (>3 nuclei), TRAP-positive cells present per well between day 7 and 10 (BM) or on day 5 (RAW264.7) (30).
# To further support the results obtained from the RAW264.7 cell line, the ability of these peptides to inhibit RANKL-mediated osteoclast differentiation in primary mouse-derived monocytes was tested. Costimulation of bone marrow-derived monocytes with RANKL and M-CSF cause osteoclast differentiation after 7-10 days, as determined by staining multi-nucleated, TRAP positive osteoclasts (30). Similar to the results with RAW264.7 cells, both L-T6DP-1 and L-T6DP-2 inhibited the development of TRAP positive osteoclast in a dose-dependent manner and L-T6DP-1 was much more efficient (FIGS. 3A and 3B).
# [2] = biological target: T1, TRAF2 binding to the cytoplasmic domain of RANK (Homo sapiens, UniProt Q12933); assay: Competitive GST-pull down assay, TRAF2 binding to RANK cytoplasmic domain; conditions: 100 μM peptide, FLAG-TRAF2 293 cell extract (FIG. 4C)
# T1 construct: expressed in transfected cells; host or cells: human 293 cells (TRAF lysate); The GST-RANK fusion was purified as previously described
# T1 sequence (Q12933 1-501): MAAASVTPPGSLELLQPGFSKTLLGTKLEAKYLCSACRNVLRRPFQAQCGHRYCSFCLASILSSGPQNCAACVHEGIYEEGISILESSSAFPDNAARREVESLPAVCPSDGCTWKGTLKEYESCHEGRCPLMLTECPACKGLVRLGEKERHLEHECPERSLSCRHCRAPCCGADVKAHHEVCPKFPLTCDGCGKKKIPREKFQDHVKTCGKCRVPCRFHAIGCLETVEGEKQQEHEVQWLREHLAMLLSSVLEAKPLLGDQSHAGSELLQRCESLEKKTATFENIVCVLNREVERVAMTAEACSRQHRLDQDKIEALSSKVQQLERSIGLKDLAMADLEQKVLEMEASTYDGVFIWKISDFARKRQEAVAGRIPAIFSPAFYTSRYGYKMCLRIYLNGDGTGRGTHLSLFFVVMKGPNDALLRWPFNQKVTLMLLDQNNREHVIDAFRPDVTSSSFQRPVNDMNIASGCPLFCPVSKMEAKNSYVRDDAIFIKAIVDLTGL
# Procedure: Cellular extracts from human 293 cells transfected with either FLAG-TRAF2, -TRAF5, or -TRAF6 were mixed with GST or GST-RANKed in the absence or presence of 100 μM of the indicated peptides. A GST-pull down assay was performed as described below. The bound TRAFs were visualized by immunoblotting with anti-FLAG antibodies.
# Equivalent amounts of GST or GST-RANK cytoplasmic domain (GST-RANKed) fusion protein attached to 20 μl of glutathione agarose beads were mixed with lysates (50 μg) from 293 cells programmed to express the epitope-tagged TRAF protein and the indicated peptides in binding buffer (20 mM TRIS, pH 8, 150 mM NaCl, 1 mM DTT, 2 mM EDTA, and 0.1% NP-40) and allowed to rotate for 1 h at 4° C. The beads were collected by centrifugation, washed three times in binding buffer, and then washed once in low-salt buffer (20 mM TRIS, pH 8, 50 mM NaCl, and 1 mM DTT). Bound proteins were eluted with addition of SDS-sample buffer and boiled. The eluted proteins were subjected to 7.5% SDS-PAGE and western blot analysis was performed with anti-FLAG antibodies.
# The cytoplasmic domain of RANK interacts with many TRAF molecules, including TRAF1, 2, 3, 5, and 6 (7-9, 11, 12). While TRAF1, 2, 3, and 5 interact with the c-terminal tail of receptor activator of NF-κB, TRAF6 interacts with a membrane proximal region of the cytoplasmic domain of the receptor activator of NF-κB. […]
substance,measurement,setting,value
L-T6DP-1: Kaposi fibroblast growth factor signal sequence hydrophobic domain attached to murine RANK peptide containing the known TRAF6 binding domain (AAVALLPAVLLALLAPRKIPTEDEYTDRPSQPST; PEPTIDE Peptide L-T6Bp-1),development of TRAP positive osteoclasts,"[1]; M-CSF 10 ng/ml and RANKL 30 ng/ml (FIGS. 3A, 3B)",inhibited
same,multi-nucleated osteoclasts,"[1]; M-CSF and RANKL, 30 μM peptide, cells still TRAP positive (FIG. 3B)",multi-nucleated osteoclast were not observed
same,osteoclasts,"[1]; M-CSF and RANKL, 100 μM peptide (FIG. 3B)",no osteoclasts were observed
same,TRAF2 binding to the cytoplasmic domain of RANK,[2],neither L-T6DP-1 nor L-T6DP-2 inhibited
